The subject of series [1] is TNFα release from THP-1 cells. Put plainly: Inhibition of TNFα release from LPS-stimulated THP-1 cells, ELISA. It counts as cell-based. The settings on record: Homo sapiens, THP-1, THP-1 cells, read-out: [CELL] THP-1, IC50, TNF ALPHA, ELISA. The procedure, abridged:
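Human THP-1 monocytes, 10^6 cells/ml in RPMI with 10% FBS, no serum or 1% HSA, preincubated 30 min at 37 °C with compound (≤0.5% DMSO), then stimulated with 10 μg/ml LPS for 18 h. Supernatant TNFα measured by ELISA; IC50 from non-linear dose-response regression.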

For the next series, the target named is T1, p38α (Homo sapiens, UniProt Q16539).
T1 construct: p38 MAP Kinases are recombinant human full-length proteins with an amino-terminal GST fusion; GST (N); purchased Upstate Biotechnology Inc; host or cells: E. coli
T1 sequence (Q16539 whole entry, the tested form may be a part): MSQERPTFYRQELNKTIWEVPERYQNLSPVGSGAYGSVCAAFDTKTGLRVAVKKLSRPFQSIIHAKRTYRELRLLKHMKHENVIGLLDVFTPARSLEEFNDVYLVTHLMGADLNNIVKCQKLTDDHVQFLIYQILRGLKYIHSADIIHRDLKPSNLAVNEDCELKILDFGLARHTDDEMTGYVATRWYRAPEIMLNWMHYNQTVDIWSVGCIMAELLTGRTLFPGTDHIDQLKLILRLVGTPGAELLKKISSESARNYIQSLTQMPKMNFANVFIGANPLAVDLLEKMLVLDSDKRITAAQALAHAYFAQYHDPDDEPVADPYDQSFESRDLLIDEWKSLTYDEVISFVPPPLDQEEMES
As to the kind of experiment: p38 MAP Kinase assay: inhibition of ATF2 phosphorylation, ELISA. It counts as biochemical. The settings on record: ATF2 phosphorylation; read-out: [ENZ] P38 ALPHA, IC50, ELISA. The procedure, abridged:
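GST-tagged full-length human p38 MAP kinase with GST-ATF2 (aa 19–96; 1.25 μM) and 40 μM ATP in HEPES pH 7.5 buffer, without (Method I) or with (Method II) 1% human serum albumin. Compound pre-incubated 15 min at room temperature; reaction 30 min at 37 °C; ATF2 Thr69 phosphorylation measured by ELISA (A450).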

One may read the IC50 as the concentration needed to halve the response being measured. What is called melting point is the temperature, or range, at which the solid turns liquid. As to `COCCN(C)c1nccc(Oc2ccc(NC(=O)c3cc(F)cc(N4CCOCC4)c3)c3ccccc23)n1` [Compound B370, 3-Fluoro-N-[4-({2-[(2-methoxyethyl)(methyl)amino]pyrimidin-4-yl}oxy)-1-naphthyl]-5-morpholin-4-ylbenzamide], the melting point was in the range of 96 to 98 °C. In series [1], the IC50 was determined as 330 nM. For the same compound, the IC50 at p38α is 21.1 nM.
On the same counts, the results for `O=C(Nc1ccc(Oc2ccnc(NC3CCCCC3)n2)c2ccccc12)c1cc(F)cc(N2CCCCC2)c1` [Compound B371, N-(4-{[2-(cyclohexylamino)pyrimidin-4-yl]oxy}-1-naphthyl)-3-fluoro-5-piperidin-1-ylbenzamide] are 118 to 120 °C, 37.1 nM and 26.4 nM.
On the same counts, the results for `CN1CCN(c2nccc(Oc3ccc(NC(=O)c4cc(F)cc(N5CCCCC5)c4)c4ccccc34)n2)CC1` [Compound B372, 3-Fluoro-N-(4-{[2-(4-methylpiperazin-1-yl)pyrimidin-4-yl]oxy}-1-naphthyl)-5-piperidin-1-ylbenzamide] are 182 to 184 °C, 217 nM and 8.4 nM.
On the same counts, the results for `COCCNc1nccc(Oc2ccc(NC(=O)c3cc(F)cc(N4CCCCC4)c3)c3ccccc23)n1` [Compound B374, 3-Fluoro-N-[4-({2-[(2-methoxyethyl)amino]pyrimidin-4-yl}oxy)-1-naphthyl]-5-piperidin-1-ylbenzamide] are 87 to 88 °C, 147 nM and 4.3 nM.
Compound `O=C(Nc1ccc(Oc2ccnc(N3CCC4(CC3)OCCO4)n2)c2ccccc12)c1cc(F)cc(N2CCCCC2)c1` [Compound B378, N-(4-{[2-(1,4-Dioxa-8-azaspiro[4.5]dec-8-yl)pyrimidin-4-yl]oxy}-1-naphthyl)-3-fluoro-5-piperidin-1-ylbenzamide] had a melting point of 195 to 196 °C. Also, the IC50 in series [1] was 225 nM. Besides, the IC50 on p38α stood at 17.1 nM.
On the same counts, the results for `O=C(Nc1ccc(Oc2ccnc(-n3ccnc3)n2)c2ccccc12)c1cc(F)cc(N2CCCCC2)c1` [Compound B379] are 175 to 176 °C, 530 nM and 15.1 nM.
On the same counts, the results for `N#CNc1nccc(Oc2ccc(NC(=O)c3cc(F)cc(N4CCCCC4)c3)c3ccccc23)n1` [Compound B380, N-(4-{[2-(Cyanoamino)pyrimidin-4-yl]oxy}-1-naphthyl)-3-fluoro-5-piperidin-1-ylbenzamide] are 160 to 162 °C, over 1000 nM and 6.6 nM.
Taken in the same sequence, the figures for `CC1CCN(c2nccc(Oc3ccc(NC(=O)c4cc(F)cc(N5CCCCC5)c4)c4ccccc34)n2)CC1` [Compound B381, 3-Fluoro-N-(4-{[2-(4-methylpiperidin-1-yl)pyrimidin-4-yl]oxy}-1-naphthyl)-5-piperidin-1-ylbenzamide] were 145 to 146 °C, 590 nM and 87.8 nM.
Compound `O=C(Nc1ccc(Oc2ccnc(NC3CC3)n2)c2ccccc12)c1cc(F)cc(N2CCCCC2)c1` [Compound B382, N-(4-{[2-(Cyclopropylamino)pyrimidin-4-yl]oxy}-1-naphthyl)-3-fluoro-5-piperidin-1-ylbenzamide] displayed a melting point of 157 to 158 °C. The 50% inhibitory concentration (IC50) in series [1] was 185 nM. Further, on p38α, the IC50 came out at 6.9 nM.
With `O=C(Nc1ccc(Oc2ccnc(NC3CCC3)n2)c2ccccc12)c1cc(F)cc(N2CCCCC2)c1` [Compound B383, N-(4-{[2-(Cyclobutylamino)pyrimidin-4-yl]oxy}-1-naphthyl)-3-fluoro-5-piperidin-1-ylbenzamide], the melting point was in the range of 112 to 114 °C. In series [1], the IC50 came to 311 nM. The IC50 at p38α was determined as 11.4 nM.
On the same counts, the results for `O=C(Nc1ccc(Oc2ccnc(NCC3CC3)n2)c2ccccc12)c1cc(F)cc(N2CCCCC2)c1` [Compound B384, N-[4-({2-[(cyclopropylmethyl)amino]pyrimidin-4-yl}oxy)-1-naphthyl]-3-fluoro-5-piperidin-1-ylbenzamide] are 117 to 119 °C, 90.3 nM and 6.3 nM.
Taken in the same sequence, the figures for `CC(C)N(C)c1nccc(Oc2ccc(NC(=O)c3cc(F)cc(N4CCCCC4)c3)c3ccccc23)n1` [Compound B385, 3-Fluoro-N-[4-({2-[isopropyl(methyl)amino]pyrimidin-4-yl}oxy)-1-naphthyl]-5-piperidin-1-ylbenzamide] were 102 to 104 °C, over 1000 nM and 95.6 nM.
On the same counts, the results for `O=C(Nc1ccc(Oc2ccnc(N3CCC(O)CC3)n2)c2ccccc12)c1cc(F)cc(N2CCCCC2)c1` [Compound B387, 3-Fluoro-N-(4-{[2-(4-hydroxypiperidin-1-yl)pyrimidin-4-yl]oxy}-1-naphthyl)-5-piperidin-1-ylbenzamide] are 182 to 184 °C, 309 nM and 5.7 nM.
For `CC1CCC(Nc2nccc(Oc3ccc(NC(=O)c4cc(F)cc(N5CCCCC5)c4)c4ccccc34)n2)CC1` (stereo not drawn) [Compound B388, 3-Fluoro-N-[4-({2-[(4-methylcyclohexyl)amino]pyrimidin-4-yl}oxy)-1-naphthyl]-5-piperidin-1-ylbenzamide], the melting point lay within 101 to 102 °C. For the same compound, in series [1], the IC50 turned out to be 102 nM. Also, the IC50 at p38α amounted to 42.7 nM.
On the same counts, the results for `O=C(Nc1ccc(Oc2ccnc(NCCN3CCCC3)n2)c2ccccc12)c1cc(F)cc(N2CCCCC2)c1` [Compound B389, 3-Fluoro-5-piperidin-1-yl-N-[4-({2-[(2-pyrrolidin-1-ylethyl)amino]pyrimidin-4-yl}oxy)-1-naphthyl]benzamide] are 92 to 94 °C, 89 nM and 2.1 nM.
For the compound `O=C(Nc1ccc(Oc2ccnc(NCCN3CCCCC3)n2)c2ccccc12)c1cc(F)cc(N2CCCCC2)c1` [Compound B390, 3-Fluoro-5-piperidin-1-yl-N-[4-({2-[(2-piperidin-1-ylethyl)amino]pyrimidin-4-yl}oxy)-1-naphthyl]benzamide], the melting point lay in the range of 88 to 89 °C. Further, the IC50 in series [1] worked out at 115 nM. In addition, the half-inhibitory concentration (IC50) on p38α came to 3 nM.
On the same counts, the results for `COCC(C)Nc1nccc(Oc2ccc(NC(=O)c3cc(F)cc(N4CCCCC4)c3)c3ccccc23)n1` (stereo not drawn) [Compound B392, 3-Fluoro-N-[4-({2-[(2-methoxy-1-methylethyl)amino]pyrimidin-4-yl}oxy)-1-naphthyl]-5-piperidin-1-ylbenzamide] are 94 to 95 °C, 122 nM and 7.1 nM.
On the same counts, the results for `CN1CCCC1CCNc1nccc(Oc2ccc(NC(=O)c3cc(F)cc(N4CCCCC4)c3)c3ccccc23)n1` (stereo not drawn) [Compound B394, 3-Fluoro-N-{4-[(2-{[2-(1-methylpyrrolidin-2-yl)ethyl]amino}pyrimidin-4-yl)oxy]-1-naphthyl}-5-piperidin-1-ylbenzamide] are 112 to 114 °C, 10.8 nM and 0.7 nM.

The record behind these values is patent publication US7829560B2, “1,4-disubstituted naphthalenes as inhibitors of P38 MAP kinase” (Arqule, Inc., priority 2004, dated 2010).
